Drawing on ChEMBL document CHEMBL1275379, “Indazolylpyrazolopyrimidine as highly potent B-Raf inhibitors with in vivo activity” (J Med Chem, 2010), this text covers inhibition, half-life and IC50 for 29 compounds.

Calls of active or inactive are those of the source. The calls are words filed in the database; no cut-off is given here.

Sequence of Serine/threonine-protein kinase B-raf (Homo sapiens), P15056 [V600E] (P15056 whole entry V600E): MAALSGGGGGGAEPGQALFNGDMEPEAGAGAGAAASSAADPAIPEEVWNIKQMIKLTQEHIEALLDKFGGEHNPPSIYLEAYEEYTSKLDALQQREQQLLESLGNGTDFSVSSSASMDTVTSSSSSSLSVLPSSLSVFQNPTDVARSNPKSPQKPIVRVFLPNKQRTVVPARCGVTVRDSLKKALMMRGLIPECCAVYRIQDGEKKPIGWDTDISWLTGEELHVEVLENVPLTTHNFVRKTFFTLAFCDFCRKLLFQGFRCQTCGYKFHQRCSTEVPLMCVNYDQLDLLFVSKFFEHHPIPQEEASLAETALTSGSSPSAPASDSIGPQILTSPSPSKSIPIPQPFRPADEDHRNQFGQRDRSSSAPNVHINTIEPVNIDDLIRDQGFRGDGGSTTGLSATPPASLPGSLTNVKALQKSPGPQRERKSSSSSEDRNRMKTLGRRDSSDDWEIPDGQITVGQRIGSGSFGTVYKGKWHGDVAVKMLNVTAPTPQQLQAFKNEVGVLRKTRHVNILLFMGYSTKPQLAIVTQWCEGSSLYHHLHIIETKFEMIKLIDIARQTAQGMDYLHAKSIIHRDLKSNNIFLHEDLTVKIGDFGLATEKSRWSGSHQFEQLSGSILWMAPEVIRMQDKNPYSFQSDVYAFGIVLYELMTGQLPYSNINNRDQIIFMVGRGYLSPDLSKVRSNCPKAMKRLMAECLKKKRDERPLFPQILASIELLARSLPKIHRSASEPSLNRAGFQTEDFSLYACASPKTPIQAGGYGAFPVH

The first data set has as its system Serine/threonine-protein kinase B-raf (Homo sapiens), P15056 [V600E]. The data set can be described thus: Inhibition of BRAF V600E mutant in human A375 cells assessed as reduction of ERK phosphorylation. Format: cell-based. As to conditions: A-375.
With `CN1C[C@@H]2C[C@H]1CN2c1ccc(-c2ccnc3c(-c4cccc(O)c4)c(-c4ccncc4)nn23)cc1`, the inhibition result was “Active”.
`CN1C[C@@H]2C[C@H]1CN2c1ccc(-c2ccnc3c(-c4cccc5[nH]ncc45)c(-c4ccncc4)nn23)c(F)c1`: the inhibition entry was “Active”.

Test system in the next data set: not listed separately
As to the kind of experiment: Half life in nude mouse liver microsomes. Format: ADME, Microsome.
Conditions: not given
For orientation: Liver microsomes are a subcellular fraction often used to study metabolism.
For orientation: half-life means how long it takes for the measured level to halve. Turning to `CC(C)CN1C[C@@H]2C[C@H]1CN2c1cc(F)c(-c2ccnc3c(-c4cccc5[nH]ncc45)c(-c4ccncc4)nn23)c(F)c1`, the half-life was 4 min.
The compound `CC(C)N1C[C@@H]2C[C@H]1CN2c1cc(F)c(-c2ccnc3c(-c4cccc5[nH]ncc45)c(-c4ccncc4)nn23)c(F)c1` gave a half-life of 17 min.
The same measure, in the same setting: in the case of `Fc1cc(N2C[C@@H]3C[C@H]2CN3C2CCC2)cc(F)c1-c1ccnc2c(-c3cccc4[nH]ncc34)c(-c3ccncc3)nn12` it was 5 min; in that of `CN1C[C@@H]2C[C@H]1CN2c1ccc(-c2ccnc3c(-c4cccc5[nH]ncc45)c(-c4ccncc4)nn23)c(F)c1`, > 30 min.

Test system in another data set: not listed separately
As to the kind of experiment: Half life in human liver microsomes. Format: ADME, Microsome.
Conditions: not given
Consider `CC(C)CN1C[C@@H]2C[C@H]1CN2c1cc(F)c(-c2ccnc3c(-c4cccc5[nH]ncc45)c(-c4ccncc4)nn23)c(F)c1`, for which the half-life is 3 min.
`CC(C)N1C[C@@H]2C[C@H]1CN2c1cc(F)c(-c2ccnc3c(-c4cccc5[nH]ncc45)c(-c4ccncc4)nn23)c(F)c1` registered a half-life of 5 min.
The compound `CCN1C[C@@H]2C[C@H]1CN2c1cc(F)c(-c2ccnc3c(-c4cccc5[nH]ncc45)c(-c4ccncc4)nn23)c(F)c1` returned a half-life of 11 min.
For `Fc1cc(N2C[C@@H]3C[C@H]2CN3C2CCC2)cc(F)c1-c1ccnc2c(-c3cccc4[nH]ncc34)c(-c3ccncc3)nn12`, the half-life stood at 3 min.
The same measure, in the same setting: with `CN1C[C@@H]2C[C@H]1CN2c1ccc(-c2ccnc3c(-c4cccc5[nH]ncc45)c(-c4ccncc4)nn23)c(F)c1` the figure was 17 min.

Another data set deals with A-375. As to the kind of experiment: Growth inhibition of human A375 cells after 4 days by MTT assay. Format: functional, cell-based. As to conditions: A-375, 96 h. For orientation: Formazan colour is commonly taken as a measure of viable cells.
In general, IC50 refers to the concentration at which inhibition is half-maximal. A lower IC50 goes with greater potency. Compound `c1cc(-c2c(-c3ccncc3)nn3c(-c4ccc(CN5C[C@@H]6C[C@H]5CO6)cc4)ccnc23)c2cn[nH]c2c1` showed an IC50 of 945 nM.
On the same count and under the same terms, with `CN1C[C@@H]2C[C@H]1CN2c1ccc(-c2ccnc3c(-c4cccc5[nH]ncc45)c(-c4ccncc4)nn23)cc1` the figure was 202 nM.
Take `CN1C[C@@H]2CC[C@H]1CN2c1ccc(-c2ccnc3c(-c4cccc5[nH]ncc45)c(-c4ccncc4)nn23)cc1`: the IC50 worked out at 185 nM.
For `Fc1cc(CN2C3COCC2COC3)ccc1-c1ccnc2c(-c3cccc4[nH]ncc34)c(-c3ccncc3)nn12`, the IC50 was found to be 304 nM.
Take `CN1C[C@@H]2C[C@H]1CN2c1ccc(-c2ccnc3c(-c4ccc(F)c5[nH]ncc45)c(-c4ccncc4)nn23)cc1`: the IC50 was found to be 68 nM.
On the same count and under the same terms, with `c1cc(-c2c(-c3ccncc3)nn3c(-c4ccc(CN5C[C@@H]6C[C@H]5CN6)cc4)ccnc23)c2cn[nH]c2c1` the figure was 9480 nM; with `Fc1cc(CN2C[C@H]3C[C@@H]2CO3)ccc1-c1ccnc2c(-c3cccc4[nH]ncc34)c(-c3ccncc3)nn12`, 78 nM.
On the same count and under the same terms, with `CN1C[C@@H]2C[C@H]1CN2c1ccc(-c2ccnc3c(-c4cccc5[nH]ncc45)c(-c4ccncc4)nn23)c2ccccc12` the figure was 25000 nM.
Take `CN1C[C@@H]2CC[C@H]1CN2c1ccc(-c2ccnc3c(-c4cccc5[nH]ncc45)c(-c4ccncc4)nn23)c(F)c1`: it took 118 nM to reach half-maximal inhibition (IC50).
Compound `CN1C[C@@H]2C[C@H]1CN2c1ccc(-c2ccnc3c(-c4cccc5[nH]ncc45)c(-c4ccncc4)nn23)cc1C(F)(F)F` came in with an IC50 of 273 nM.
On the same count and under the same terms, in the case of `CN1C[C@@H]2C[C@H]1CN2c1cc(F)c(-c2ccnc3c(-c4ccc(F)c5[nH]ncc45)c(-c4ccncc4)nn23)c(F)c1` it was 17 nM.
In turn, `CN1C[C@@H]2C[C@H]1CN2c1c(F)c(F)c(-c2ccnc3c(-c4cccc5[nH]ncc45)c(-c4ccncc4)nn23)c(F)c1F` came in with a concentration for half-maximal inhibition (IC50) of 70 nM.
Turning to `CN1C[C@@H]2C[C@H]1CN2c1cccc(-c2ccnc3c(-c4cccc5[nH]ncc45)c(-c4ccncc4)nn23)c1`, the IC50 was found to be 1400 nM.
Compound `CC(C)CN1C[C@@H]2C[C@H]1CN2c1cc(F)c(-c2ccnc3c(-c4cccc5[nH]ncc45)c(-c4ccncc4)nn23)c(F)c1` showed an IC50 of 89 nM.
The same measure, in the same setting: in the case of `Fc1cc(CN2C[C@@H]3C[C@H]2CO3)ccc1-c1ccnc2c(-c3cccc4[nH]ncc34)c(-c3ccncc3)nn12` it was 268 nM.
Same read-out and setting: in the case of `CC(C)N1C[C@@H]2C[C@H]1CN2c1cc(F)c(-c2ccnc3c(-c4cccc5[nH]ncc45)c(-c4ccncc4)nn23)c(F)c1` it was 55 nM.
The same measure, in the same setting: in the case of `Cc1cc(N2C[C@@H]3C[C@H]2CN3C)ccc1-c1ccnc2c(-c3ccc(F)c4[nH]ncc34)c(-c3ccncc3)nn12` it was 188 nM; in that of `CCN1C[C@@H]2C[C@H]1CN2c1cc(F)c(-c2ccnc3c(-c4cccc5[nH]ncc45)c(-c4ccncc4)nn23)c(F)c1`, 56 nM.
As to `CN(C)c1cc(N2C[C@@H]3C[C@H]2CN3C)ccc1-c1ccnc2c(-c3cccc4[nH]ncc34)c(-c3ccncc3)nn12`, the IC50 stood at 1850 nM.
Same read-out and setting: with `CN1C[C@@H]2C[C@H]1CN2c1ccc(-c2ccnc3c(-c4cccc5[nH]ncc45)c(-c4ccncc4)nn23)c(Cl)c1` the figure was 39 nM; with `Fc1cc(N2C[C@@H]3C[C@H]2CN3C2CCC2)cc(F)c1-c1ccnc2c(-c3cccc4[nH]ncc34)c(-c3ccncc3)nn12`, 78 nM.
On the same count and under the same terms, in the case of `CN1C[C@@H]2C[C@H]1CN2c1ccc(-c2ccnc3c(-c4cccc5[nH]ncc45)c(-c4ccncc4)nn23)c(F)c1F` it was 107 nM.
In turn, `CN1C[C@@H]2C[C@H]1CN2c1ccc(-c2ccnc3c(-c4ccc(F)c5[nH]ncc45)c(-c4ccncc4)nn23)c(F)c1` came in with an IC50 of 33 nM.
Same read-out and setting: in the case of `CN1C[C@@H]2C[C@H]1CN2c1ccc(-c2ccnc3c(-c4cccc(O)c4)c(-c4ccncc4)nn23)cc1` it was 77 nM.
In turn, `Cc1cc(N2C[C@@H]3C[C@H]2CN3C)ccc1-c1ccnc2c(-c3cccc4[nH]ncc34)c(-c3ccncc3)nn12` yielded an IC50 of 137 nM.
Same read-out and setting: with `CN1C[C@@H]2C[C@H]1CN2c1c(F)cc(-c2ccnc3c(-c4cccc5[nH]ncc45)c(-c4ccncc4)nn23)cc1F` the figure was 1250 nM; with `CN1C[C@@H]2C[C@H]1CN2c1ccc(-c2ccnc3c(-c4cccc5[nH]ncc45)c(-c4ccncc4)nn23)c(F)c1`, 44 nM.
In the case of `CN1C[C@@H]2C[C@H]1CN2c1cc(F)c(-c2ccnc3c(-c4cccc5[nH]ncc45)c(-c4ccncc4)nn23)cc1F`, inhibition was half-maximal at 87 nM (IC50).

The next data set deals with Serine/threonine-protein kinase B-raf (Homo sapiens, UniProt P15056). The data set can be described thus: Inhibition of BRAF.
Sequence of Serine/threonine-protein kinase B-raf (P15056 whole entry): as the sequence (P15056 whole entry V600E) above, with E600V counted along it
Conditions: not given
Take `CN1C[C@@H]2C[C@H]1CN2c1ccc(-c2ccnc3c(-c4cccc5[nH]ncc45)c(-c4ccncc4)nn23)cc1`: the IC50 amounted to 1.2 nM.
On the same count and under the same terms, with `CN1C[C@@H]2CC[C@H]1CN2c1ccc(-c2ccnc3c(-c4cccc5[nH]ncc45)c(-c4ccncc4)nn23)cc1` the figure was 0.71 nM; with `Fc1cc(CN2C3COCC2COC3)ccc1-c1ccnc2c(-c3cccc4[nH]ncc34)c(-c3ccncc3)nn12`, 0.77 nM; with `CN1C[C@@H]2C[C@H]1CN2c1ccc(-c2ccnc3c(-c4ccc(F)c5[nH]ncc45)c(-c4ccncc4)nn23)cc1`, 0.5 nM.
For `c1cc(-c2c(-c3ccncc3)nn3c(-c4ccc(CN5C[C@@H]6C[C@H]5CN6)cc4)ccnc23)c2cn[nH]c2c1`, inhibition was half-maximal at 2.3 nM (IC50).
As to `Fc1cc(CN2C[C@H]3C[C@@H]2CO3)ccc1-c1ccnc2c(-c3cccc4[nH]ncc34)c(-c3ccncc3)nn12`, the midpoint of inhibition, the IC50, lay at 0.52 nM.
Same read-out and setting: in the case of `CN1C[C@@H]2C[C@H]1CN2c1ccc(-c2ccnc3c(-c4cccc5[nH]ncc45)c(-c4ccncc4)nn23)c2ccccc12` it was 1 nM.
On the same count and under the same terms, in the case of `CN1C[C@@H]2CC[C@H]1CN2c1ccc(-c2ccnc3c(-c4cccc5[nH]ncc45)c(-c4ccncc4)nn23)c(F)c1` it was 0.41 nM.
As to `CN1C[C@@H]2C[C@H]1CN2c1cc(F)c(-c2ccnc3c(-c4ccc(F)c5[nH]ncc45)c(-c4ccncc4)nn23)c(F)c1`, half-maximal inhibition (IC50) was put at 0.11 nM.
The same measure, in the same setting: in the case of `CN1C[C@@H]2C[C@H]1CN2c1c(F)c(F)c(-c2ccnc3c(-c4cccc5[nH]ncc45)c(-c4ccncc4)nn23)c(F)c1F` it was 0.35 nM; in that of `CC(C)CN1C[C@@H]2C[C@H]1CN2c1cc(F)c(-c2ccnc3c(-c4cccc5[nH]ncc45)c(-c4ccncc4)nn23)c(F)c1`, < 0.32 nM.
Compound `Fc1cc(CN2C[C@@H]3C[C@H]2CO3)ccc1-c1ccnc2c(-c3cccc4[nH]ncc34)c(-c3ccncc3)nn12` had an IC50 of 1.2 nM.
In the case of `CC(C)N1C[C@@H]2C[C@H]1CN2c1cc(F)c(-c2ccnc3c(-c4cccc5[nH]ncc45)c(-c4ccncc4)nn23)c(F)c1`, the IC50 is < 0.32 nM.
On the same count and under the same terms, in the case of `Cc1cc(N2C[C@@H]3C[C@H]2CN3C)ccc1-c1ccnc2c(-c3ccc(F)c4[nH]ncc34)c(-c3ccncc3)nn12` it was < 0.32 nM; in that of `CN1C[C@@H]2C[C@H]1CN2c1ccc(-c2ccnc3c(-c4cccc5[nH]ncc45)c(-c4ccncc4)nn23)c(Br)c1`, < 0.32 nM; in that of `CCN1C[C@@H]2C[C@H]1CN2c1cc(F)c(-c2ccnc3c(-c4cccc5[nH]ncc45)c(-c4ccncc4)nn23)c(F)c1`, < 0.32 nM.
The same measure, in the same setting: with `CN1C[C@@H]2C[C@H]1CN2c1ccc(-c2ccnc3c(-c4cccc5[nH]ncc45)c(-c4ccncc4)nn23)c(Cl)c1` the figure was < 0.1 nM; with `Fc1cc(N2C[C@@H]3C[C@H]2CN3C2CCC2)cc(F)c1-c1ccnc2c(-c3cccc4[nH]ncc34)c(-c3ccncc3)nn12`, < 0.32 nM; with `CN1C[C@@H]2C[C@H]1CN2c1ccc(-c2ccnc3c(-c4cccc5[nH]ncc45)c(-c4ccncc4)nn23)c(F)c1F`, 0.61 nM.
Consider `CN1C[C@@H]2C[C@H]1CN2c1ccc(-c2ccnc3c(-c4ccc(F)c5[nH]ncc45)c(-c4ccncc4)nn23)c(F)c1`, for which the IC50 was < 0.1 nM.
On the same count and under the same terms, in the case of `Cc1cc(N2C[C@@H]3C[C@H]2CN3C)ccc1-c1ccnc2c(-c3cccc4[nH]ncc34)c(-c3ccncc3)nn12` it was 0.51 nM.
The compound `CN1C[C@@H]2C[C@H]1CN2c1ccc(-c2ccnc3c(-c4cccc5[nH]ncc45)c(-c4ccncc4)nn23)c(F)c1` showed an IC50 of 0.23 nM.
`CN1C[C@@H]2C[C@H]1CN2c1cc(F)c(-c2ccnc3c(-c4cccc5[nH]ncc45)c(-c4ccncc4)nn23)cc1F`: half-maximal inhibition (IC50) was put at 0.38 nM.
